Test systems include M14 melanoma; HT29 colon; OVCAR-4 ovarian; HL-60(TB) leukemia; UO-31 renal; IGROV1 ovarian; RXF 393 renal; SW-620 colon; CAKI-1 renal; SF-268 CNS.
Common to all, as to experiment: NCI tumour cell line growth inhibition, 48 h

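Five concentrations, 48 hours, 96-well plates. Here, GI50 denotes the concentration required for 50% inhibition of growth. TGI: concentration producing complete growth inhibition.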 Some results are limits rather than exact numbers.

`COC1CC(OS(=O)(=O)c2ccc(C)cc2)C(OC(=O)c2ccccc2)C(C)O1` (centres undefined): the GI50 with M14 melanoma, with HT29 colon, in the assay with OVCAR-4 ovarian, in the assay on HL-60(TB) leukemia, with UO-31 renal and in the assay with IGROV1 ovarian was over 100 µM each time. For the same molecule, the GI50 was over 10 µM with RXF 393 renal, over 100 µM with SW-620 colon and over 100 µM in the assay with CAKI-1 renal. For the same molecule, the TGI with M14 melanoma, in the assay with HT29 colon, in the assay with OVCAR-4 ovarian, in the assay on HL-60(TB) leukemia, in the assay on UO-31 renal and in the assay on IGROV1 ovarian was over 100 µM throughout. The TGI with RXF 393 renal, with SW-620 colon, with CAKI-1 renal and with SF-268 CNS was over 100 µM each time.

For the molecule `CN(C)CCCN1c2ccccc2CCc2ccc(Cl)cc21`, the GI50 in the assay with M14 melanoma is 1.83 µM; with HT29 colon it was 3.38 µM; in the assay with OVCAR-4 ovarian it was 3.64 µM; in the assay with HL-60(TB) leukemia, 3.63 µM; with UO-31 renal, 5.17 µM; in the assay on IGROV1 ovarian it was 7.09 µM. Also, the GI50 with RXF 393 renal was 2 µM; in the assay with SW-620 colon, 3.92 µM; with CAKI-1 renal it was 3.88 µM; in the assay with SF-268 CNS it was 4.92 µM. Besides, the TGI came out at 3.35 µM in the assay on M14 melanoma; 11.6 µM in the assay with HT29 colon; 16.4 µM in the assay with OVCAR-4 ovarian; 13.2 µM in the assay with HL-60(TB) leukemia; 19.7 µM in the assay with UO-31 renal; 22 µM in the assay on IGROV1 ovarian. The TGI in the assay on RXF 393 renal was found to be 7.66 µM; in the assay with SW-620 colon, 16 µM; in the assay on CAKI-1 renal it was 16.8 µM; in the assay on SF-268 CNS, 18.2 µM.

For `C=C1CC[C@@H]2[C@](C)(COC(C)=O)[C@@H](O)CC[C@@]2(C)[C@@H]1COc1ccc2ccc(=O)oc2c1`, the GI50 in the assay with M14 melanoma, in the assay on HT29 colon, in the assay on OVCAR-4 ovarian, in the assay on HL-60(TB) leukemia, with UO-31 renal and in the assay on IGROV1 ovarian was over 100 µM each time. Further, the GI50 was 14.7 µM in the assay on RXF 393 renal, over 100 µM with SW-620 colon, over 100 µM with CAKI-1 renal and over 100 µM in the assay with SF-268 CNS. In addition, the TGI in the assay with M14 melanoma, in the assay with HT29 colon, with OVCAR-4 ovarian, in the assay on HL-60(TB) leukemia, in the assay on UO-31 renal and in the assay on IGROV1 ovarian was over 100 µM in each case. Further, the TGI in the assay on RXF 393 renal is 58.9 µM; in the assay with SW-620 colon, over 100 µM; in the assay with CAKI-1 renal, over 100 µM; with SF-268 CNS it was over 100 µM.

Turning to `COc1cc2nc(N3CCCC3)nc(NCC3CCCCC3)c2cc1OC`, the GI50 with M14 melanoma is 1.44 µM; with HT29 colon, 0.435 µM; in the assay on OVCAR-4 ovarian it was 1.25 µM; with HL-60(TB) leukemia, 0.505 µM; with UO-31 renal, 1.1 µM; in the assay on IGROV1 ovarian, 1.48 µM. Further, the GI50 with RXF 393 renal was 1.07 µM; with SW-620 colon it was 1.39 µM; with CAKI-1 renal it was 1.34 µM; with SF-268 CNS it was 1.75 µM. For the same molecule, the TGI was 2.88 µM in the assay on M14 melanoma; 1.69 µM in the assay with HT29 colon; 2.71 µM with OVCAR-4 ovarian; 2.21 µM in the assay with HL-60(TB) leukemia; 2.38 µM with UO-31 renal; 3.06 µM with IGROV1 ovarian. Also, the TGI in the assay on RXF 393 renal is 2.49 µM; in the assay on SW-620 colon it was 2.89 µM; in the assay with CAKI-1 renal, 2.64 µM; in the assay on SF-268 CNS it was 3.45 µM.

In the case of `CC(C)CC(CC1=CCC2CC1C2(C)C)C1=C(O)C(C)(C)C(=O)C(C)(C)C1=O` (centres undefined), the GI50 with M14 melanoma is 0.404 µM; with HT29 colon it was 0.383 µM; in the assay with OVCAR-4 ovarian, 0.486 µM; in the assay with HL-60(TB) leukemia, 0.205 µM; in the assay on UO-31 renal, 0.272 µM; with IGROV1 ovarian, 0.5 µM. For the same molecule, the GI50 in the assay on RXF 393 renal was 0.434 µM; in the assay on SW-620 colon, 0.4 µM; in the assay on CAKI-1 renal it was 0.332 µM; in the assay on SF-268 CNS, 0.354 µM. For the same molecule, the TGI in the assay on M14 melanoma was 5.86 µM; in the assay on HT29 colon, 11.2 µM; in the assay with OVCAR-4 ovarian, over 100 µM; with HL-60(TB) leukemia, 0.423 µM; in the assay on UO-31 renal it was 2.4 µM; in the assay with IGROV1 ovarian, over 100 µM. The TGI with RXF 393 renal was 3.83 µM; in the assay with SW-620 colon it was over 100 µM; with CAKI-1 renal, 2.29 µM; in the assay with SF-268 CNS it was over 100 µM.

On to `Cc1ccc(NC(=O)/C=C/c2ccccc2)c(C(N)=O)c1`, for which the GI50 was 2.12 µM in the assay on M14 melanoma; 2.36 µM in the assay on HT29 colon; 9.17 µM in the assay with OVCAR-4 ovarian; 1.75 µM in the assay on HL-60(TB) leukemia; 10.3 µM in the assay on UO-31 renal; 4.89 µM in the assay on IGROV1 ovarian. The GI50 with RXF 393 renal is 2.67 µM; in the assay with SW-620 colon, 2.5 µM; with CAKI-1 renal, 6.78 µM; with SF-268 CNS, 7.19 µM. Also, the TGI was over 100 µM in the assay on M14 melanoma; 30.8 µM in the assay on HT29 colon; over 100 µM in the assay on OVCAR-4 ovarian; 6.7 µM with HL-60(TB) leukemia; over 60 µM with UO-31 renal; over 56.1 µM in the assay with IGROV1 ovarian. In addition, the TGI in the assay with RXF 393 renal was 8.16 µM; in the assay with SW-620 colon, over 100 µM; in the assay with CAKI-1 renal, over 59.4 µM; with SF-268 CNS, over 100 µM.

`COc1ccc(-c2cc(-c3ccccc3)nc(SCCCC(=O)NO)n2)cc1`: the GI50 with M14 melanoma is 0.894 µM; in the assay with HT29 colon, 1.64 µM; in the assay with OVCAR-4 ovarian, 1.26 µM; in the assay with HL-60(TB) leukemia, 1.18 µM; in the assay on UO-31 renal, 0.239 µM; in the assay on IGROV1 ovarian, 1.11 µM. The GI50 was 0.338 µM in the assay on RXF 393 renal, 0.484 µM in the assay with SW-620 colon, 0.335 µM in the assay on CAKI-1 renal and 1.66 µM in the assay on SF-268 CNS. Moreover, the TGI in the assay with M14 melanoma came out at 3.92 µM; in the assay with HT29 colon, 10.9 µM; in the assay on OVCAR-4 ovarian, 9.01 µM; in the assay on HL-60(TB) leukemia it was 7 µM; in the assay on UO-31 renal it was 0.991 µM; in the assay on IGROV1 ovarian it was 3.83 µM. Besides, the TGI came to 1.4 µM with RXF 393 renal, 4.85 µM with SW-620 colon, 1.45 µM with CAKI-1 renal and 5.16 µM in the assay on SF-268 CNS.

Turning to `COc1cc(C(=O)C/C(CCC(=O)Nc2ccccc2[N+](=O)[O-])=N\NC(=O)CC#N)ccc1O`, the TGI in the assay on M14 melanoma, with HT29 colon, in the assay on OVCAR-4 ovarian, with HL-60(TB) leukemia, with UO-31 renal and in the assay on IGROV1 ovarian was over 100 µM each time. The TGI with RXF 393 renal, with SW-620 colon, in the assay with CAKI-1 renal and in the assay with SF-268 CNS was over 100 µM throughout.
